According to patent publication US8618098B2, “Inhibitors of bruton's tyrosine kinase” (Roche Palo Alto LLC, priority 2008, dated 2013):

Assays:
[1] = molecular target: Btk enzyme (His-tagged, full-length) (Homo sapiens (Human), UniProt Q06187); test: Bruton's Tyrosine Kinase (Btk) Inhibition Assay; type: biochemical; details: 33P filtration capture assay, 100 μM ATP, 30 μM biotinylated peptide substrate
Description: The assay is a capture of radioactive ^33P phosphorylated product through filtration. The interactions of Btk, biotinylated SH2 peptide substrate (Src homology), and ATP lead to phosphorylation of the peptide substrate. Biotinylated product is bound streptavidin sepharose beads. All bound, radiolabeled products are detected by scintillation counter.
Plates assayed are 96-well polypropylene (Greiner) and 96-well 1.2 μm hydrophilic PVDF filter plates (Millipore). Concentrations reported here are final assay concentrations: 10-100 μM compounds in DMSO (Burdick and Jackson), 5-10 nM Btk enzyme (His-tagged, full-length), 30 μM peptide substrate (Biotin-Aca-[…]-NH2), 100 μM ATP (Sigma), 8 mM imidazole (Sigma, pH 7.2), 8 mM glycerol-2-phosphate (Sigma), 200 μM EGTA (Roche Diagnostics), 1 mM MnCl2 (Sigma), 20 mM MgCl2 (Sigma), 0.1 mg/ml BSA (Sigma), 2 mM DTT (Sigma), 1 μCi ^33P ATP (Amersham), 20% streptavidin sepharose beads (Amersham), 50 mM EDTA (Gibco), 2 M NaCl (Gibco), 2 M NaCl w/1% phosphoric acid (Gibco), microscint-20 (Perkin Elmer).
IC50 determinations are calculated from 10 data points per compound utilizing data produced from a standard 96-well plate assay template. One control compound and seven unknown inhibitors were tested on each plate and each plate was run twice. Typically, compounds were diluted in half-log starting at 100 μM and ending at 3 nM. The control compound was staurosporine. Background was counted in the absence of peptide substrate. Total activity was determined in the presence of peptide substrate. The following protocol was used to determine Btk inhibition.
1) Sample preparation: The test compounds were diluted at half-log increments in assay buffer (imidazole, glycerol-2-phosphate, EGTA, MnCl2, MgCl2, BSA).
a.) rinse beads by centrifuging at 500 g
b.) reconstitute the beads with PBS and EDTA to produce a 20% bead slurry
3) Pre-incubate reaction mix without substrate (assay buffer, DTT, ATP, ^33P ATP) and mix with substrate (assay buffer, DTT, ATP, ^33P ATP, peptide substrate) 30° C. for 15 min.
4) To start assay, pre-incubate 10 μL Btk in enzyme buffer (imidazole, glycerol-2-phosphate, BSA) and 10 μL of test compounds for 10 min at RT.
5) Add 30 μL reaction mixture without or with substrate to Btk and compounds.
6) Incubate 50 μL total assay mix for 30 min at 30° C.
7) Transfer 40 μL of assay to 150 μL bead slurry in filter plate to stop reaction.
8) Wash filter plate after 30 min, with following steps
b. 3×250 μL NaCl containing 1% phosphoric acid
9) Dry plate for 1 h at 65° C. or overnight at RT
10) Add 50 μL microscint-20 and count ^33P cpm on scintillation counter. […]

Btk enzyme (His-tagged, full-length), sequence (Q06187 whole entry): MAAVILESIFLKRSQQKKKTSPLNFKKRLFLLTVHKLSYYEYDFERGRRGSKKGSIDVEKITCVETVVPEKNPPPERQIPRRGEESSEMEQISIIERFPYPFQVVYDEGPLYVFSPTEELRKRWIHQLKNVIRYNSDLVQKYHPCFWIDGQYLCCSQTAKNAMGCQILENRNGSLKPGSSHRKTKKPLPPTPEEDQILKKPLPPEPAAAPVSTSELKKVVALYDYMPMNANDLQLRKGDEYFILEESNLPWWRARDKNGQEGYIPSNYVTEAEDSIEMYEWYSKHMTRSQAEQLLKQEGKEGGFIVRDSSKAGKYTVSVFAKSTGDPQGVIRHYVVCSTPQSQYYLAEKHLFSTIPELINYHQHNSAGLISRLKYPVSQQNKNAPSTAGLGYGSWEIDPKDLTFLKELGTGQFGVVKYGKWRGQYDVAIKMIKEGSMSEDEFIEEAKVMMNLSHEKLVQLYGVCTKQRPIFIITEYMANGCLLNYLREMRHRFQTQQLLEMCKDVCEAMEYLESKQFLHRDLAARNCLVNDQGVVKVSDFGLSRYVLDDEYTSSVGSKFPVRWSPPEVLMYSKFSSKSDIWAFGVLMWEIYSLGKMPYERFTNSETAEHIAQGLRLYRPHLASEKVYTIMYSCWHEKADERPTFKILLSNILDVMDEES

| Compound | IC50 [1] | melting point |
| --- | --- | --- |
| CNC(=O)Nc1cc(-c2cccc(-n3cnc4cc(C(C)(C)C)ccc4c3=O)c2C)cn(C)c1=O [Compound I-1, 1-{5-[3-(7-tert-Butyl-4-oxo-4H-quinazolin-3-yl)-2-methyl-phenyl]-1-methyl-2-oxo-1,2-dihydro-pyridin-3-yl}-3-methyl urea] | 112 nM |  |
| Cc1c(-c2cc(Nc3ccc(C(=O)N4CCOCC4)cn3)c(=O)n(C)c2)cccc1N1CNc2cc(N(C)C)ccc2C1=O [II-1, 7-Dimethylamino-3-(2-methyl-3-{1-methyl-5-[5-(morpholin-4-carbonyl)-pyridin-2-ylamino]-6-oxo-1,6-dihydro-pyridin-3-yl}-phenyl)-2,3-dihydro-1H-quinazolin-4-one] | 22 nM | 247.1 to 250.9 °C |
| CNC(=O)Nc1cc(-c2cccc(N3CNc4cc(N(C)C)ccc4C3=O)c2C)cn(C)c1=O [II-2, 1-{5-[3-(7-Dimethylamino-4-oxo-1,4-dihydro-2H-quinazolin-3-yl)-2-methyl-phenyl]-1-methyl-2-oxo-1,2-dihydro-pyridin-3-yl}-3-methyl-urea] |  | 218.5 to 223.8 °C |
| Cc1c(-c2cc(Nc3ccc(C(=O)N4CCOCC4)cn3)c(=O)n(C)c2)cccc1N1CNc2cc(C(C)(C)O)ccc2C1=O [II-3, 7-(1-Hydroxy-1-methyl-ethyl)-3-(2-methyl-3-{1-methyl-5-[5-(morpholine-4-carbonyl)-pyridin-2-ylamino]-6-oxo-1,6-dihydro-pyridin-3-yl}-phenyl)-2,3-dihydro-1H-quinazolin-4-one] | 18 nM | 196 to 197 °C |
| Cc1c(-c2cc(Nc3ccc(C(=O)N4CCOCC4)cn3)c(=O)n(C)c2)cccc1-n1ncc2cc(N(C)C)ccc2c1=O [III-1, 6-Dimethylamino-2-(2-methyl-3-{1-methyl-5-[5-(morpholine-4-carbonyl)-pyridin-2-ylamino]-6-oxo-1,6-dihydro-pyridin-3-yl}-phenyl)-2H-phthalazin-1-one] | 124 nM |  |
